Experimental data published in patent US12396458B2, “Fused ring substituted aromatic compound and preparation method therefor, herbicidal composition, and use thereof” (Qingdao Kingagroot Chemical Compound Co., Ltd., priority 2020, dated 2025).

Assays:
Experiment in all cases: Weeding effect in post-emergence stage (greenhouse pot test)
Type in all cases: in vivo
Conyza japonica = details: post-emergence, dose 15 g a.i./ha, 3 weeks after application, fresh weight control rate
From the text: (§1) The activity level criteria for plant damage (i.e., growth control rate) are as follows:
(§2) Level 5: growth control rate is above 85%; • Level 4: growth control rate is greater than or equal to 60% and less than 85%; • Level 3: growth control rate is greater than or equal to 40% and less than 60%; • Level 2: growth control rate is greater than or equal to 20% and less than 40%; • Level 1: growth control rate is greater than or equal to 5% and less than 20%; • Level 0: growth control rate is less than 5%.
(§3) The above growth control rates are fresh weight control rates.
(§4) Experiment on weeding effect in post-emergence stage:
(§5) Monocotyledonous and dicotyledonous weed seeds (Descurainia sophia, Capsella bursa-pastoris, Abutilon theophrasti, Galium aparine, Stellaria media, Lithospermum arvense, Rorippa indica, Alopecurus aequalis, Alopecurus japonicus, Eleusine indica, Beckmannia syzigachne, Sclerochloa dura, Phleum paniculatum, Veronica didyma Tenore, Bromus japonicus, Aegilops tauschii, Phalaris arundinacea, Amaranthus retrojlexus, Chenopodiaceae, Commelina communis, Sonchus arvensis, convolvulus arvensis, Cirsium setosum, Solanum nigrum, Acalypha australis, Digitaria sanguinalis, Echinochloa crusgalli, Setaria viridis, Setaria glauca, Leptochloa chinensis, Monochoria vaginalis, Sagittaria trifolia, Scirpus juncoides, Cyperus rotundus, Cyperus iria, Cyperus difformis, Fimbristylis, Portulaca oleracea, Xanthium sibiricum, Pharbitis nil, Conyza japonica, etc.) and major crop seeds (wheat, corn, rice, soybean, cotton, oilseed rape, millet, sorghum, potato, sesame, ricinus, etc.) were placed in plastic pots filled with soil, then covered with 0.5-2 cm of soil, allowed to grow in a good greenhouse environment. After 2 weeks of sowing, the test plants were treated in the 2-3 leaf stage. The tested compounds of the present invention were respectively dissolved in acetone, then added with Tween 80 and 1.5 liter/ha of emulsifiable concentrate of methyl oleate as synergist, diluted with a certain amount of water to obtain a solution with a certain concentration, and sprayed with a spray tower onto the plants. After the application, the plants were cultured for 3 weeks in the greenhouse, and then the experimental results of the weeding were counted. The doses of the used compounds were 500, 250, 125, 60, 15, 7.5 g a.i./ha, and the averages were obtained by repeating for three times.

Capsella bursa-pastoris = details: dose 15 g a.i./ha, 3 weeks after application, fresh weight control rate
From the text: as §1, §2, §3, §4, §5

Alopecurus japonicus = details: dose 15 g a.i./ha, 3 weeks after application, fresh weight control rate
From the text: as §1, §2, §3, §4, §5

Beckmannia syzigachne = details: dose 15 g a.i./ha, 3 weeks after application, fresh weight control rate
From the text: as §1, §2, §3, §4, §5

| Structure (SMILES) | Activity level (growth control rate), Conyza japonica (Conyza japonica) | Activity level (growth control rate), Capsella bursa-pastoris (Capsella bursa-pastoris) | Activity level (growth control rate), Alopecurus japonicus (Alopecurus japonicus) | Activity level (growth control rate), Beckmannia syzigachne (Beckmannia syzigachne) |
| --- | --- | --- | --- | --- |
| COC(=O)C12CCCC1C(c1cc(-n3c(=O)n(C)c(=S)n(C)c3=O)c(F)cc1Cl)=NO2 (stereo not drawn) [Compound 2] | 5 (Level 5: growth control rate is above 85%) | 5 (Level 5: growth control rate is above 85%) | 5 (Level 5: growth control rate is above 85%) | 5 (Level 5: growth control rate is above 85%) |
| CCCOC(=O)C12CCCC1C(c1cc(-n3c(=O)n(C)c(=S)n(C)c3=O)c(F)cc1Cl)=NO2 (stereo not drawn) [Compound 4] | 4 (Level 4: growth control rate is greater than or equal to 60% and less than 85%) | 5 (Level 5: growth control rate is above 85%) | 5 (Level 5: growth control rate is above 85%) | 5 (Level 5: growth control rate is above 85%) |
| C=CCOC(=O)C12CCCC1C(c1cc(-n3c(=O)n(C)c(=S)n(C)c3=O)c(F)cc1Cl)=NO2 (stereo not drawn) [Compound 10] | 4 (Level 4: growth control rate is greater than or equal to 60% and less than 85%) | 5 (Level 5: growth control rate is above 85%) | 5 (Level 5: growth control rate is above 85%) | 5 (Level 5: growth control rate is above 85%) |
| C#CCOC(=O)C12CCCC1C(c1cc(-n3c(=O)n(C)c(=S)n(C)c3=O)c(F)cc1Cl)=NO2 (stereo not drawn) [Compound 13] | 4 (Level 4: growth control rate is greater than or equal to 60% and less than 85%) | 5 (Level 5: growth control rate is above 85%) | 5 (Level 5: growth control rate is above 85%) | 5 (Level 5: growth control rate is above 85%) |
| Cn1c(=S)n(C)c(=O)n(-c2cc(C3=NOC4(C(=O)OCC5CCCO5)CCCC34)c(Cl)cc2F)c1=O (stereo not drawn) [Compound 49] | 4 (Level 4: growth control rate is greater than or equal to 60% and less than 85%) | 5 (Level 5: growth control rate is above 85%) | 4 (Level 4: growth control rate is greater than or equal to 60% and less than 85%) | 5 (Level 5: growth control rate is above 85%) |
| Cn1c(=S)n(C)c(=O)n(-c2cc(C3=NOC4(C(=O)OCc5ccccc5)CCCC34)c(Cl)cc2F)c1=O (stereo not drawn) [Compound 51] | 4 (Level 4: growth control rate is greater than or equal to 60% and less than 85%) | 5 (Level 5: growth control rate is above 85%) | 4 (Level 4: growth control rate is greater than or equal to 60% and less than 85%) | 4 (Level 4: growth control rate is greater than or equal to 60% and less than 85%) |
| COC(=O)C12CCCC1C(c1cc(/N=c3\sc(=O)n4n3CCCC4)c(F)cc1Cl)=NO2 (stereo not drawn) [Compound 575] | 4 (Level 4: growth control rate is greater than or equal to 60% and less than 85%) | 5 (Level 5: growth control rate is above 85%) | 4 (Level 4: growth control rate is greater than or equal to 60% and less than 85%) | – |
| COC(=O)C12CCCC1C(c1cc(-c3nnc(C(F)(F)F)cc3OC)c(F)cc1Cl)=NO2 (stereo not drawn) [Compound 578] | 4 (Level 4: growth control rate is greater than or equal to 60% and less than 85%) | 5 (Level 5: growth control rate is above 85%) | 5 (Level 5: growth control rate is above 85%) | – |
